Measurements reported in patent publication US9751861B2, “N1-(3,3,3-trifluoro-2-hydroxo-2-methylpropionyl)-piperidine derivatives as inhibitors of pyruvate dehydrogenase kinase” (MERCK PATENT GMBH, priority 2013, dated 2017).
pIC50, pKd: −log10 of the molar value.

Experiments:
PDHK2 = target: T1, PDHK2 (Homo sapiens, UniProt Q15119); experiment: Biochemical activity testing of PDHK2: PDC inactivation assay; settings: human rec PDHK2, PDC from porcine heart, ATP 5 μM; read-out: IC50 PDHK2 (enzyme assay)
T1 construct: purchased Carna Bioscience
Source text: Biochemical Activity Testing of PDHK2: PDC Inactivation Assay
The biochemical activity assay for PDHK2 is based on the inactivation of PDC through phosphorylation by PDHK2. The assay is run in two steps: the enzymatic PDHK2 reaction in which isolated PDC is phosphorylated by PDHK2 with ATP as co-substrate and the PDC activity assay in which pyruvate and NAD are converted to acetyl-CoA and NADH. The PDC activity correlates to the increase in NADH and thereby is detectable directly via the increasing fluorescence signal (Exc 340 nm, Em 450 nm). Inhibition of PDHK2 results in a lower phosphorylation status and thereby a less decrease in activity of PDC and a stronger increase in NADH fluorescence signal.
The PDC inactivation assay is performed in Greiner 384-well microtiter plates and is used for high throughput screen. 4 μl of PDHK2 (human, rec, Carna Bioscience, 10 ng/μl-137 nM final concentration) and PDC (isolated from porcine heart, Sigma-Aldrich, 20 mU/ml final concentration) are incubated in the absence or presence of the test compound (10 dilution concentrations) for 30 min at room temperature in kinase buffer (15 mM potassium phosphate buffer, pH 7.0, 60 mM KCl, 1.5 mM DTT, 2.5 mM MgCl2, 0.0125% (w/v) BSA, 0.125% Pluronic F-68). The kinase reaction is started by the addition of 4 μl ATP substrate solution (fc 5 μM in kinase buffer). After 30 min incubation at 37° C. 40 μl of PDC reaction solution (100 mM Tris/HCl, pH 7.8, 0.5 mM EDTA, 1 mM MgCl2, 50 mM NaF, 0.25 mM Coenzyme A, 5 mM pyruvate, 1 mM NAD, 5 mM DTT, […] thiamine pyrophosphate) is added. The first fluorescence measurement is performed on a Perkin Elmer Envision (Exc 340 nm, Em 450 nm). The reaction is incubated for 45 min at room temperature. Afterwards a second fluorescence measurement is performed and the PDC activity is calculated by the difference between both measurements. As full value for the PDHK2 assay the inhibitor-free PDHK2 reaction is used. The pharmacological zero value used is DCA (Sigma-Aldrich) in a final concentration of 3 mM. The inhibitory values (IC50) were determined using either the program Symyx Assay Explorer® or Condosseo® from GeneData.

human PDHK2 (12-407) = target: T2, human PDHK2 (12-407) (Homo sapiens, UniProt Q15119); experiment: Isothermal titration calorimetry (ITC) binding; settings: 30° C., pH 7.5
T2 construct: The human PDHK2 (12-407) was produced in E. coli; His-tag (cleaved yes); made in house; host or cells: E. coli
Experimental: Isothermal Titration Calorimetry
ITC measurements were performed with a VP-ITC micro calorimeter (Microcal, LLC/GE Healthcare Bio-Sciences AB, Uppsala, Sweden). In general titrations were performed by titrating the protein (50 μM) to the test compound (5 μM) in 12 μl injections. All binding experiments were carried out at 30° C. In general the test compounds were diluted form DMSO stock solutions into the measurement buffer with a maximum final concentration of 1% DMSO. The measurement buffer was 20 mM HEPES, 135 mM KCl, 1 mM TCEP, 2 mM MgCl2, 15 mM NaH2PO4, pH 7.5. The human PDHK2 (12-407) was produced in E. coli as his-tagged protein and purified by affinity chromatography. The tag was removed by side specific proteolysis. Before titration the protein buffer was changed to the measurement buffer containing the same DMSO concentration as the test compound dilution. ITC data analysis was performed using Origin 7 calorimetry software from the same supplier. For most measurements a binding model of one binding site was assumed. According to the applied mathematical model it is possible to calculate the binding constant (KA), the observed binding enthalpy (ΔH^obs) as well as the stoichiometry (N) of the formed complex. Preceding analysis the raw data was corrected for the heats of dilution by extrapolating from the saturation value from the end of titration. In order to allow for direct comparison between the respective experimental series and protein preparations the protein concentration was corrected by referencing titrations to a well behaved standard inhibitor. The apparent stoichiometry values defined the fraction of binding competent protein and compensated for relative errors in protein concentration measurements. This corrected protein concentration was used to set up ITC experiment series with test compounds. Any deviations from ideal 1:1 stoichiometry observed here were attributed to errors in compound concentration. This nominal compound concentration was corrected as well to achieve 1:1 stoichiometry in the fit.

Row | SMILES | pIC50 (PDHK2) | pKd (human PDHK2 (12-407))
1 | C[C@@](O)(C(=O)N1CCC(c2nccn2-c2ccc(Cl)cc2)CC1)C(F)(F)F [Compound A69, (R)-1-{4-[1-(4-Chloro-phenyl)-1H-imidazol-2-yl]-piperidin-1-yl}-3,3,3-trifluoro-2-hydroxy-2-methyl-propan-1-one] | 5.52 to 6.52 | 
2 | Cc1ccc(-n2nncc2C2CCN(C(=O)[C@@](C)(O)C(F)(F)F)CC2)cc1 [Compound A59, (R)-3,3,3-Trifluoro-2-hydroxy-2-methyl-1-[4-(3-p-tolyl-3 H-[1,2,3]triazol-4-yl)piperidin-1-yl]-propan-1-one] | 5.52 to 6.52 | 
3 | C[C@@](O)(C(=O)N1CCC(c2ccn(-c3ccc(Cl)cn3)n2)CC1)C(F)(F)F [Compound A29, (R)-1-{4-[1-(5-Chloro-pyridin-2-yl)-1H-pyrazol-3-yl]-piperidin-1-yl}-3,3,3-trifluoro-2-hydroxy-2-methyl-propan-1-one] | 5.52 to 6.52 | 5.52 to 6.52
4 | Cc1cc(C2CCN(C(=O)[C@@](C)(O)C(F)(F)F)CC2)nn1-c1ccc(Cl)cc1 [Compound A34, (R)-1-{4-[1-(4-Chloro-phenyl)-5-methyl-1H-pyrazol-3-yl]-piperidin-1-yl}-3,3,3-trifluoro-2-hydroxy-2-methyl-propan-1-one] | 5.52 to 6.52 | 5.52 to 6.52
5 | Cn1nccc1C1CCN(C(=O)[C@@](C)(O)C(F)(F)F)CC1 [Compound A52, (R)-3,3,3-Trifluoro-2-hydroxy-2-methyl-1-[4-(2-methyl-2H-pyrazol-3-yl)piperidin-1-yl]-propan-1-one] | 5.52 to 6.52 | 5.52 to 6.52
6 | CN1CCC(n2nccc2C2CCN(C(=O)[C@@](C)(O)C(F)(F)F)CC2)CC1 [Compound A75, (R)-3,3,3-Trifluoro-2-hydroxy-2-methyl-1-{4-[2-(1-methyl-piperidin-4-yl)-2H-pyrazol-3-yl]-piperidin-1-yl}-propan-1-one] | 4.30 to 5.52 | 
7 | Cc1ccc(-n2nncc2C2CCN(C(=O)[C@@](C)(O)C(F)(F)F)CC2)c(F)c1 [Compound A60] | 5.52 to 6.52 | 5.52 to 6.52
8 | C[C@@](O)(C(=O)N1CCC(n2cnnc2-c2ccc(Cl)cc2)CC1)C(F)(F)F [Compound A56, (R)-1-{4-[3-(4-Chloro-phenyl)-[1,2,4]triazol-4-yl]-piperidin-1-yl}-3,3,3-trifluoro-2-hydroxy-2-methyl-propan-1-one] | 5.52 to 6.52 | 5.52 to 6.52
9 | Cc1cc(C2CCN(C(=O)[C@@](C)(O)C(F)(F)F)CC2)nn1-c1ccccc1 [Compound A47, (R)-1-[4-(5-Methyl-1-phenyl-1H-pyrazol-3-yl)-piperidin-1-yl]-3,3,3-trifluoro-2-hydroxy-2-methyl-propan-1-one] | 4.30 to 5.52 | 
10 | CC(C)Cn1nccc1C1CCN(C(=O)[C@@](C)(O)C(F)(F)F)CC1 [Compound A76, (R)-3,3,3-Trifluoro-2-hydroxy-1-[4-(2-isobutyl-1H-pyrazol-3-yl)-1-piperidyl]-2-methyl-propan-1-one] | 4.30 to 5.52 | 
11 | C[C@@](O)(C(=O)N1CCC(c2ccnn2C2CCCC2)CC1)C(F)(F)F [Compound A51, (R)-1-[4-(2-Cyclopentyl-2H-pyrazol-3-yl)-piperidin-1-yl]-3,3,3-trifluoro-2-hydroxy-2-methyl-propan-1-one] | 5.52 to 6.52 | 
12 | C[C@@](O)(C(=O)N1CCC(c2nncn2-c2ccc(Cl)cc2)CC1)C(F)(F)F [Compound A73, (R)-1-{4-[4-(4-Chloro-phenyl)-4H-[1,2,4]triazol-3-yl]-piperidin-1-yl}-3,3,3-trifluoro-2-hydroxy-2-methyl-propan-1-one] | 5.52 to 6.52 | 
13 | Cc1cc(C2CCN(C(=O)[C@@](C)(O)C(F)(F)F)CC2)nn1-c1ccc(F)cc1 [Compound A40, (R)-1-{4-[1-(4-Fluoro-phenyl)-5-methyl-1H-pyrazol-3-yl]-piperidin-1-yl}-3,3,3-trifluoro-2-hydroxy-2-methyl-propan-1-one] | 5.52 to 6.52 | 
14 | C[C@@](O)(C(=O)N1CCC(c2ccnn2-c2ccc(C#N)nc2)CC1)C(F)(F)F [Compound A81, 5-{5-[1-((R)-3,3,3-Trifluoro-2-hydroxy-2-methyl-propionyl)-piperidin-4-yl]-pyrazol-1-yl}-pyridine-2-carbonitrile] | 5.52 to 6.52 | 
15 | C[C@H]1CN(C(=O)[C@@](C)(O)C(F)(F)F)CC[C@H]1c1ccn(-c2ccc(F)cc2)n1 [Compound A45, (R)-3,3,3-Trifluoro-1-{(3R,4R)-4-[1-(4-fluoro-phenyl)-1H-pyrazol-3-yl]-3-methyl-piperidin-1-yl}-2-hydroxy-2-methyl-propan-1-one] | 4.30 to 5.52 | 

More lines, now with the values ahead:

Row | pIC50 (PDHK2) | pKd (human PDHK2 (12-407)) | SMILES
16 | 5.52 to 6.52 |  | C[C@@](O)(C(=O)N1CCC(c2ccn(-c3ncc(F)cc3F)n2)CC1)C(F)(F)F [Compound A109, (R)-1-{4-[1-(3,5-Difluoro-pyridin-2-yl)-1H-pyrazol-3-yl]-piperidin-1-yl}-3,3,3-trifluoro-2-hydroxy-2-methyl-propan-1-one]
17 | 5.52 to 6.52 |  | COc1cc(F)ccc1-n1nccc1C1CCN(C(=O)[C@@](C)(O)C(F)(F)F)CC1 [Compound A90, (R)-3,3,3-Trifluoro-1-{4-[2-(4-fluoro-2-methoxy-phenyl)-2H-pyrazol-3-yl]-piperidin-1-yl}-2-hydroxy-2-methyl-propan-1-one]
18 | 5.52 to 6.52 |  | C[C@@](O)(C(=O)N1CCC(c2ccnn2-c2ccccc2C(F)(F)F)CC1)C(F)(F)F [Compound A89, (R)-3,3,3-Trifluoro-2-hydroxy-2-methyl-1-[4-[2-[2-(trifluoromethyl)phenyl]-2H-pyrazol-3-yl]-1-piperidyl]propan-1-one]
19 | 5.52 to 6.52 | 5.52 to 6.52 | COc1ccc(-n2ccc(C3CCN(C(=O)[C@@](C)(O)C(F)(F)F)CC3)n2)nn1 [Compound A105, (R)-3,3,3-Trifluoro-2-hydroxy-1-{4-[1-(6-methoxy-pyridazin-3-yl)-1H-pyrazol-3-yl]-piperidin-1-yl}-2-methyl-propan-1-one]
20 | 5.52 to 6.52 |  | CC(C)Cn1ccc(C2CCN(C(=O)[C@@](C)(O)C(F)(F)F)CC2)n1 [Compound A114, (R)-3,3,3-Trifluoro-2-hydroxy-1-[4-(1-isobutyl-1H-pyrazol-3-yl)-piperidin-1-yl]-2-methyl-propan-1-one]
21 | 5.52 to 6.52 |  | C[C@@](O)(C(=O)N1CCC(c2ccnn2-c2ccc(C(F)(F)F)cn2)CC1)C(F)(F)F [Compound A84, (R)-3,3,3-Trifluoro-2-hydroxy-2-methyl-1-{4-[2-(5-trifluoromethyl-pyridin-2-yl)-2H-pyrazol-3-yl]-piperidin-1-yl}-propan-1-one]
22 | 4.30 to 5.52 |  | Cn1ccc(C2CCN(C(=O)[C@@](C)(O)C(F)(F)F)CC2)n1 [Compound A99, (R)-3,3,3-Trifluoro-2-hydroxy-2-methyl-1-[4-(1-methyl-1H-pyrazol-3-yl)piperidin-1-yl]-propan-1-one]
23 | 4.30 to 5.52 |  | C[C@@](O)(C(=O)N1CCC(c2ccn[nH]2)CC1)C(F)(F)F [Compound A104, (R)-3,3,3-Trifluoro-2-hydroxy-2-methyl-1-[4-(2H-pyrazol-3-yl)-piperidin-1-yl]-propan-1-one]
24 | 4.30 to 5.52 |  | C[C@@](O)(C(=O)N1CCC(c2ccn(-c3ncc(Cl)cn3)n2)CC1)C(F)(F)F [Compound A103, (R)-1-{4-[1-(5-Chloro-pyrimidin-2-yl)-1H-pyrazol-3-yl]-piperidin-1-yl}-3,3,3-trifluoro-2-hydroxy-2-methyl-propan-1-one]
